{"source": "paper PMC9636186", "about": "(Nature Communications, 2022)", "target": "T1, IBD (ItcR itaconate-binding domain) (Yersinia pseudotuberculosis, UniProt A0A0H3B558)", "T1 construct": "gene YPK_2265", "T1 sequence (A0A0H3B558 80-292 limits assumed)": "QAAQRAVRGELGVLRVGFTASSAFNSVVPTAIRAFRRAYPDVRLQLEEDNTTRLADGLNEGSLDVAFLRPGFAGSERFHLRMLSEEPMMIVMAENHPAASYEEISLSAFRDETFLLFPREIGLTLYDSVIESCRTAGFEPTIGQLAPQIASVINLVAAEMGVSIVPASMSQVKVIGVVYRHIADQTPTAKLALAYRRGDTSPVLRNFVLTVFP", "settings": "protein:itaconate molar ratio 1:100, Bis-Tris pH 6.5, PEG300, 20 °C; SeMet form 7W06", "data": [{"smiles": "C=C(CC(=O)O)C(=O)O", "note": "[itaconate]", "values": [{"measurement": "structure of complex", "value": "crystal structure of IBD without or with itaconate binding was determined"}]}]}
